Measured values reported in a compilation of properties of binary mixtures (doi:10.1016/j.tca.2013.02.002).

Assay: xn = mol fraction of the nth substance listed
Conditions: 101 kPa

CS(C)=O + CC[NH+](CC)CC.O=S(=O)([O-])O
x1 = 1
Conditions | speed of sound [m/s] | viscosity [mPa·s]
298.15 K | 1496 | 1.99
303.15 K | 1472 | 1.8
308.15 K | 1460 | 1.65

CC[NH+](CC)CC.O=S(=O)([O-])O + CS(C)=O
Conditions | speed of sound, 298.15 K [m/s] | speed of sound, 303.15 K [m/s] | speed of sound, 308.15 K [m/s] | viscosity, 298.15 K [mPa·s] | viscosity, 303.15 K [mPa·s] | viscosity, 308.15 K [mPa·s]
x1 = 0.011 | – | – | 1468 | – | – | 2.8
x2 = 0 | 1874 | 1871 | 1866 | 235 | 153 | 138
x2 = 0.0244 | – | 1867 | 1863 | – | 148 | 134
x2 = 0.0557 | 1861 | 1859 | 1857 | 219 | 142 | 129
x2 = 0.108 | 1852 | 1850 | 1850 | 204 | 132 | 120
x2 = 0.1556 | 1838 | 1836 | 1830 | 190 | 123 | 112
x2 = 0.199 | – | 1820 | 1822 | – | 115 | 105
x2 = 0.2473 | 1812 | 1808 | – | 165 | 106 | –
x2 = 0.3279 | 1786 | 1778 | 1778 | 144 | 92 | 85.4
x2 = 0.4004 | 1758 | 1748 | – | 125 | 79.3 | –
x2 = 0.4964 | 1720 | 1708 | 1706 | 101 | 63.8 | 60.6
x2 = 0.5798 | 1684 | 1670 | 1666 | 81.1 | 51.1 | 49.2
x2 = 0.653 | 1652 | – | 1632 | 64.6 | – | 39.59
x2 = 0.7376 | 1614 | 1596 | 1590 | 46.7 | 29.42 | 29.13
x2 = 0.7812 | 1594 | 1576 | 1568 | 38.2 | 24.22 | 23.96
x2 = 0.8269 | 1574 | 1554 | 1546 | 29.63 | 19.13 | 18.72
x2 = 0.8772 | 1550 | 1530 | 1520 | 20.8 | 13.67 | 13.35
x2 = 0.9156 | 1534 | 1514 | 1502 | 14.31 | 9.78 | 9.41
x2 = 0.9539 | – | 1495 | 1484 | – | 6.27 | 5.84
